The source of these data is patent publication US7671181B2, “Polynucleotides encoding coccidian parasite casein kinase I, a chemotherapeutic target for antiprotozoal agents” (Merck Sharp & Dohme Corp., priority 2004, dated 2010).

The target in one experiment is TgCKIα (Toxoplasma gondii, UniProt Q6QNM1). The experiment can be described thus: Casein kinase assay, TgCKIα (recombinant FLAGTgCKIα or partially purified native). To be noted: 0.2 μM hymenialdisine or 1 μM purvalanol B. It counts as biochemical. On the set-up: Km(app), native TgCKIα; other: substrate titration, 2 μM ATP; IC50, nativeTgCKIα; other: partially purified native enzyme from Toxoplasma tachyzoites; sensitivity of native TgCKIα phosphopeptide kinase activity (HiTrapQ fractions 5-9); other: 0.2 μM hymenialdisine or 1. Here is the method:
Protein kinase assays—Casein kinase activity was assayed essentially as described (Donald, R. G. K. et al., 2002, supra) using 96-well phosphocellulose plates (MAPH-NOB, Millipore; Billerica, Mass.) to capture ^33P-phosphorylated peptide or casein substrates. Kinase reactions were carried out in 40 μl volumes containing 25 mM Hepes, pH 7.4, 10 mM MgCl2, 20 mM β-glycerophosphate, 1 mM DTT, 250 μM substrate, 1 mg/mL BSA, 2 μM ATP, and 0.01 μM [γ-^33P]ATP (Perkin-Elmer, 3000 Ci/mmol). […] Casein (5% solution), partially dephosphorylated α-casein and β-casein were obtained from Sigma.
(§1) A variety of commercially available peptide substrates were evaluated. From Calbiochem (San Diego, Calif.): CKI substrate (RRKDLHDDEEDEAMSITA; SEQ ID NO:13); CKII substrate (RRADDSDDDDD; SEQ ID NO:14); Syntide-2 substrate (PLARTLSVAGLPGKK; SEQ ID NO:15); CaM kinase II substrate (281-291) (MHKNETVECLK; SEQ ID NO:16). From Promega: CKI substrate (DDDEESITRR; SEQ ID NO:17) and kemptide (LRRASLG; SEQ ID NO:18). From New England Biolabs (Beverly, Mass.): CKI phosphopeptide substrate (KRRRALS(p)VASLPGL; SEQ ID NO:19), and CKII substrate (RRREEETEEE; SEQ ID NO:20). PKG assays were performed with kemptide as substrate and 10 μM cGMP. CDPK was assayed with Syntide-2 substrate and in the presence of 100 μM CaCl2.
Purification of recombinant CKI enzymes—E. coli strain BL21 Origami™ (Novagen) was transformed with FLAGTgCKIα and FLAGTgCKIβ expression vectors, and colonies were expanded into 250 mL LB cultures grown at 37° C. Expression was induced with 1 mM IPTG once cultures had reached an OD600nm of 0.3-0.5, and the transformed bacteria were harvested 4-6 hours later. Cell pellets were resuspended in 15 mL of lysis buffer containing protease inhibitors and lysates prepared as described by the supplier (Bugbuster™ reagents, Novagen). The concentration of NaCl in the lysate was adjusted to 0.5 M, and 0.5 mL of FLAG-agarose beads were added (Sigma). The mixture was allowed to rock in a Nutator mixer (Becton-Dickinson; San Jose, Calif.) for 2 hours at 4° C. The slurry was then poured into an empty column and the matrix washed with 50 mL of wash buffer (50 mM Tris-HCl, pH 7.4, 0.5M NaCl, 10% glycerol, 1 mM DTT, 1 mM EDTA). […] Protein was measured with a micro-BCA reagent (Pierce) following a TCA-sodium deoxycholate step to remove residual FLAG peptide (Brown et al., 1989, Anal. Biochem. 180:136-139). […]
Preparations of FLAGTgCKIα and FLAGTgCKIβ were purified further on a SMART system FPLC 0.1 mL MonoQ anion exchange column (Pharmacia; New York, N.Y.) equilibrated in buffer A (50 mM Hepes, pH 7.4, 10% glycerol, 1 mM DTT) at room temperature. […] A linear salt gradient was applied (0-500 mM in 3 mL at 100 μl/min) and 100 μl fractions were collected and analyzed by SDS-PAGE and for CKI activity. […]

The target of the next experiment is EtCKIα (Eimeria tenella, UniProt Q6QNL9). Briefly: Casein kinase assay, partially purified native EtCKIα. It is filed as biochemical. To be noted: native enzyme. Here is the method:
Protein kinase assays—Casein kinase activity was assayed essentially as described (Donald, R. G. K. et al., 2002, supra) using 96-well phosphocellulose plates (MAPH-NOB, Millipore; Billerica, Mass.) to capture ^33P-phosphorylated peptide or casein substrates. Kinase reactions were carried out in 40 μl volumes containing 25 mM Hepes, pH 7.4, 10 mM MgCl2, 20 mM β-glycerophosphate, 1 mM DTT, 250 μM substrate, 1 mg/mL BSA, 2 μM ATP, and 0.01 μM [γ-^33P]ATP (Perkin-Elmer, 3000 Ci/mmol). The reactions were initiated by the addition of enzyme and incubated at room temperature for 60 min. Casein (5% solution), partially dephosphorylated α-casein and β-casein were obtained from Sigma.
as §1
Partial purification of native EtCKIα—The inability to stably express recombinant EtCKIα in T. gondii provided impetus to purify native enzyme from E. tenella parasites (slide 5). A lysate was prepared from 2×10^10 unsporulated oocysts using previously published procedures (Gurnett, A. M. et al., 2002, supra). The first two steps of the purification scheme used were essentially scaled-up from the method described for the purification of native TgCKIα. The lysate was subjected to preparative HiLoad Q anion-exchange chromatography and fractions eluted with a NaCl gradient (0-1 M NaCl). […]

EtCKIα, sequence (Q6QNL9 whole entry): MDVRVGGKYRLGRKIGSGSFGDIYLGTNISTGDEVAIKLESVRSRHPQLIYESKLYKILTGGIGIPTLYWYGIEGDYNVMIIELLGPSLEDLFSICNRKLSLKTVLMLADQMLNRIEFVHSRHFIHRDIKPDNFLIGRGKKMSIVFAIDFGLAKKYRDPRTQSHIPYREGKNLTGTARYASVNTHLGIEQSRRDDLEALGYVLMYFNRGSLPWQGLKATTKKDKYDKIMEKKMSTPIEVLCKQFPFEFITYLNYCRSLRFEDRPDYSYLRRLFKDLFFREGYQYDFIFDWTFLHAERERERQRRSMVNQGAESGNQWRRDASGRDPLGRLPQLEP
TgCKIα, sequence (Q6QNM1 whole entry, looked up): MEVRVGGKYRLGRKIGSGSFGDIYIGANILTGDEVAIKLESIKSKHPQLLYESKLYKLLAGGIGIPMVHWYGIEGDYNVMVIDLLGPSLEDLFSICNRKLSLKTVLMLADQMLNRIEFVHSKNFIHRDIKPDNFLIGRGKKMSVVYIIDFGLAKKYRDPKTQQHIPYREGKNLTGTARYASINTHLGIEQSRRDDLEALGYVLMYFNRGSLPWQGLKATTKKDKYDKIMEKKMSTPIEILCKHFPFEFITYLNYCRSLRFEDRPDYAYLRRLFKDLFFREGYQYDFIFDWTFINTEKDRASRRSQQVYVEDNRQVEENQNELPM

As to `CC(C)[C@H](CO)Nc1nc(Nc2ccc(C(=O)O)c(Cl)c2)c2ncn(C(C)C)c2n1` [purvalanol B], the “sensitivity of native TgCKIα phosphopeptide kinase activity (HiTrapQ fractions 5-9)” value on TgCKIα was “sensitive”. Further, at EtCKIα, the “activity against / sensitivity of EtCKIα” value was “good activity”.
